The values below are quoted from earlier work in paper PMC12833850, “Hybridization Approach Applied to Umbelliferon and Vanilloids toward New Inhibitors of Carbonic Anhydrases IX and XII with In Vitro Antiproliferative and Anti-inflammatory Activities” (Journal of Medicinal Chemistry, 2026).

This data set deals with T1, hCA IX (Homo sapiens, UniProt Q16790).
T1 construct: made in house
As to conditions: data already reported; ref Maresca and Supuran, 2010.

On to `O=c1ccc2cc(O)ccc2o1` [Compound 2, 6-hydroxycoumarin], for which the inhibition constant (Ki) was 198 nM.
